The target of test [1] is T1, AP endonuclease activity of HeLa whole-cell extracts (WCE) (Homo sapiens, UniProt P27695).
T1 construct: incubated at 100 μM concentrations with 30 ng of HeLa WCE at room temperature; endogenous in cells; host or cells: HeLa whole-cell extract
Description: Whole-cell extract AP-site cleavage assay. The test is classed as biochemical. Here is the method: The supernatant WCE was retained, the protein concentration determined using the Bio-Rad Bradford reagent, and aliquots were stored at −80°C. AP endonuclease activity assays using 18-mer radiolabelled oligonucleotide substrates (see above) were performed. In brief, all potential APE1 inhibitors were incubated at 100 μM concentrations with 30 ng of HeLa WCE at room temperature for 15 min in incision buffer consisting of 50 mM Tris-HCl, pH 8, 1 mM MgCl2, 50 mM NaCl and 2 mM DTT. After incubation, 0.5 pmol ^32P-radiolabeled THF-containing 18-mer double-stranded DNA substrate was added. […] The radiolabeled substrate and product were separated on a standard polyacrylamide-denaturing gel and quantified by phosphorimager analysis.

The target of test [2] is T2, D148E polymorphic variant of APE1 (Homo sapiens, UniProt P27695, D148E).
T2 construct: made in house
Description: Radiolabelled oligonucleotide-based APE1 cleavage assay, D148E vs wild type. The test is classed as biochemical. The conditions noted are these: data not shown. Here is the method: This basic assay was performed as described previously ([Madhusudan et al, 2005]). Briefly, a radiolabelled uracil-containing oligonucleotide (5′-CTCGCAAGUGGGTACCGA-3′) was annealed to a complementary oligonucleotide. […] AP site cleavage reaction consisted of 50 nM APE1 and 0.75 ng reduced AP site double-stranded oligonucleotide incubated at 37°C for 1 h. The sample was resolved on a 15% TBE Criterion Pre Cast Gel (Bio-Rad, Hemel Hempstead, Herts, UK) and the radiolabelled substrate and reaction products were visualised using a phosphorImager (Molecular Dynamics, Buckinghamshire, UK).

Where two headings read alike, the source gives them in different places.

What is called inhibition is the percentage by which the read-out fell short of the control.

T1 sequence (P27695 whole entry): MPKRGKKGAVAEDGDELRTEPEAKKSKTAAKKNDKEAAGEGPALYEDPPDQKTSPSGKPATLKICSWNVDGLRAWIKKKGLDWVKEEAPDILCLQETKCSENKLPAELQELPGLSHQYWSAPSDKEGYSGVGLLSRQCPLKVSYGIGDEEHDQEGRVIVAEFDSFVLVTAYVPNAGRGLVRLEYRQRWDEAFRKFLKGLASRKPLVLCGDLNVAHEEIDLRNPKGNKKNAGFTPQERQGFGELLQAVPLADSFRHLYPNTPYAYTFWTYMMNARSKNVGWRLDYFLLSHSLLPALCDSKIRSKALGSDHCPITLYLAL
T2 sequence (P27695 whole entry D148E): as the sequence (P27695 whole entry) above, with D148E counted along it

On to `Cc1ccc(-c2nc(S(=O)(=O)c3ccccc3)c(SCC(=O)Nc3ccc(F)cc3)o2)cc1` [Compound 4, N-(4-fluorophenyl)-2-(4-phenylsulfonyl-2-(p-tolyl)oxazol-5-yl) sulfanyl-acetamide], for which the inhibition at 100 µM in test [1] (30 ng HeLa WCE, read-out: WCE Inhibition (whole-cell extracts AP site cleavage inhibition)) is greater than 75%; in test [1] (HeLa WCE, read-out: inhibition of AP site cleavage in WCE assay), roughly 93%. In addition, the “inhibition of AP site cleavage in WCE assay” value in test [1] (100 μM, HeLa WCE) was greater than 90%. Besides, the “preferential inhibitory activity towards D148E protein, radiolabelled assay” value in test [2] is listed as “confirmed”.

These data come from publication PMC3049581, “Development and evaluation of human AP endonuclease inhibitors in melanoma and glioma cell lines” (British Journal of Cancer, 2011).
